The METLIN SMRT retention time set (Domingo-Almenara et al. 2019)

Experiment: gradient 5% acetonitrile 3 min, to 50% in 2 min, to 85% in 15 min, held 3 min, 100 µL/min
Conditions: column: Zorbax Extend-C18 2.1 x 50 mm; eluents: water / acetonitrile, 0.1% formic acid
How it was run: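 A Zorbax Extend-C18 column (2.1 × 50 mm, 1.8 μm) run at 100 μL/min with water and acetonitrile, both containing 0.1% formic acid, separated mixtures of ~100 pure standards. The HPLC was coupled to a quadrupole time-of-flight mass spectrometer operated in positive and negative ionization mode, with dead and dwell volumes of 40 μL and 900 μL. Each retention time was taken from a computationally picked adduct peak that was then manually inspected.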

RP-LC retention time [s]	SMILES
694	CCCNC(=O)C1CCN(c2ccc(SCC(=O)Nc3ccc(CC)cc3)nn2)CC1
854	O=C(NC1CCCCC1)c1nnc(-c2ccc(S(=O)(=O)N3CCOCC3)cc2)o1
947	Cc1ccc(CNC(=O)Cn2c(C)cc(-c3nnc(C4CCC4)o3)c2C)cc1C
980	COc1nn(C)cc1C(=O)Nc1cc(C(F)(F)F)ccc1Cl
1160	CCOc1ccc(C2Cn3nnc(-c4nc(-c5ccc(OC)cc5)no4)c3CO2)cc1 (configuration not stated)
733	CCC(=O)Nc1cc(C)n(Cc2ccccc2)n1
657	CC(C)Cn1c(=O)c2cc(C(=O)NCc3ccncc3)nn2c2ccccc21
739	Cc1cc(C)n(-c2ccnc(N3CCC(C(=O)N4CCCC4)CC3)n2)n1
744	CC(NC(=O)COc1ccc(NC(=O)C2CC2)cn1)c1ccccc1 (configuration not stated)
744	Nc1cc(C2CCN(C(=O)Nc3cccc(Br)c3)CC2)no1
637	Cc1cc(-c2nnc(-c3ccco3)o2)c(C)n1CC(=O)NCc1ccc(Cl)cc1
923	CCCn1cc(CCNS(=O)(=O)c2ccc(C)c(C)c2)c2cccnc21
808	O=C(Cn1cnc2nc3c(cc2c1=O)CCCC3)Nc1cccc2c1CCCC2
706	CS(=O)(=O)N1CCN(Cc2cc3nc(-c4cccc5[nH]ncc45)nc(N4CCOCC4)c3s2)CC1
653	CCC(=O)N1CCc2c(C(=O)NC3CC3)cccc21
1120	Cc1cccc(C)c1-n1ccn(Cc2nc(-c3ccc(C(C)(C)C)cc3)no2)c(=O)c1=O
799	CC(C)S(=O)(=O)c1cc2c(cc1NC(=O)c1ccccc1F)n(C)c(=O)n2C
736	Cc1ccc(S(=O)(=O)N2CCCCC2c2nncn2C)cc1F (configuration not stated)
771	COc1ccc(CNC(=O)N2C[C@@H]3CN(S(=O)(=O)c4cccc(F)c4)C[C@H](C2)O3)cc1
671	CC(C)CC(=O)Nc1ccc(N2CCCC(C)C2)cc1C(=O)O (configuration not stated)
712	Cc1nc2cc3c(cc2n1CC(=O)Nc1cccc(C(F)(F)F)c1)OCCO3

Second part, the compound before the results:

SMILES	RP-LC retention time [s]
CCCNC(=O)CC1CCN(C(=O)c2[nH]c(C)cc2C)CC1	661
COc1cc([C@@H]2c3cc4c(cc3[C@H](O)[C@@H](CO)[C@@H]2C(=O)NCC2CC2)OCO4)cc(OC)c1OC	666
O=C(c1csc(N2CCCC2)n1)N1CCCC1	657
Cc1nc2cc(-c3noc(CNC(=O)Cc4ccc(Cl)cc4)n3)ccc2n(C2CCCC2)c1=O	1020
Cc1noc(C2(NC(=O)c3cc(F)cc(F)c3)CCCCC2)n1	916
Cc1ccc(-c2csc(Nc3c(C)n(C)n(-c4ccccc4)c3=O)n2)cc1	788
O=C(Nc1cccc2cccnc12)c1ccc(N2C(=O)[C@@H]3[C@H](C2=O)[C@@H]2C=C[C@H]3C2)cc1	941
Cc1cc(C)c2[nH]c3c(c(=O)c2c1)CN(CC(=O)Nc1cc(F)cc(F)c1)CC3	673
Cc1csc(-c2csc(S(=O)(=O)Nc3ccc(F)c(Cl)c3)c2)n1	1020
CN(C)c1cc(C(=O)NC2CCCC2)c2ccccc2n1	619
Cc1ccc(-c2csc(NC(=O)Cn3c(=O)sc4ccccc43)n2)cc1	1010
Cc1ccc2c(Nc3ccc(CC(=O)O)cc3)c(C(=O)N3CCCCCC3)cnc2n1	595
CCc1cc(=O)n(CC(=O)Nc2cc(Cl)ccc2C)c(N2CCOCC2)n1	771
CNC(=O)c1cc(-c2ccccc2)n(C)c1C	591
CCOc1ccc(S(=O)(=O)Nc2cc(-c3cn4ccccc4n3)ccc2C)cc1	687
O=C(C(Cl)Cl)N1CC2CCC(CC2)C1	956
CN(CC(=O)N1CCN(C2CCCCC2)CC1)S(=O)(=O)c1ccc2c(c1)CCCC(=O)N2	602
COCc1cc(=O)n(CC(=O)Nc2cc(C(F)(F)F)ccc2Cl)c(N2CCOCC2)n1	1060
CC(C)CCNC(=O)CN1c2ccc(F)cc2-c2ccccc2S1(=O)=O	963
Cc1c(-c2noc(C3CCCCC3)n2)nnn1-c1ccccc1	1160
CCCCN1C(=O)C(C)(C(=O)NCCOC)Oc2cccnc21 (configuration not stated)	781
COc1ccc(-c2nnc(SCc3cc(=O)n4ccsc4n3)o2)cc1	722
O=C(c1ccoc1)N1[C@H]2CC[C@@H]1c1cnc(-c3ccc(F)cc3)nc1C2	882

SMILES	RP-LC retention time [s]
COCCN1CCn2cc(S(=O)(=O)Nc3ccc(C)cc3C)cc2C1=O	730
COc1ccc(N2CCN(S(=O)(=O)c3cc(-c4nnc(C5CCC5)o4)co3)CC2)cc1	1000
COc1ccc(C(=O)N2CCc3cn(C)c4cccc(c34)C2)c(OC)c1	875
Cc1ccc(C)c(CN2CCn3c(nn(C)c3=O)C2)c1	747
CN(CCc1noc(COc2cccc(C(F)(F)F)c2)n1)C(=O)c1ccco1	919
Cc1cccc(N2CCN(c3ccc4cc(S(=O)(=O)N5CCC(C)CC5)ccc4n3)CC2)c1C	1460
Cc1nc(CC(=O)Nc2nc(-c3cccc(Cl)c3)c(C)s2)cs1	994
CSc1cccc(NC(=O)N2CCC(C)(C(=O)NCc3ccccc3)CC2)c1	852
COC(=O)COC(=O)c1cn(-c2cccc(OC)c2)c(=O)c2ccccc12	924
CCOCCCNC(=O)c1nnc(-c2ccc(S(=O)(=O)N3CCC(C)CC3)cc2)o1	924
COc1ccc2c(c1)CC(C(=O)N1CCN(C(=O)c3ccco3)CC1)CO2 (configuration not stated)	725
CCOC(=O)c1nc(N(CC)c2cccc(C)c2)c2ccccc2n1	1050
COC(=O)c1c(-c2ccccc2)csc1NC(=O)C1CCN(C(C)=O)CC1	862
Cc1cccc(NS(=O)(=O)c2ccc(-c3nnc(C4CCC4)o3)o2)c1C	949
COc1ccc(CCNS(=O)(=O)c2cc3c4c(c2)CCC(=O)N4CCC3)cc1OC	766
O=C(Cn1c(=O)oc2ccccc21)N1CCN(c2ccccn2)CC1	598
COCc1c(C(=O)O)nnn1-c1ccccc1F	670
Cc1nn(CC(=O)NCc2ccc(F)cc2F)c(=O)c2nc(-c3ccccc3)sc12	914
COc1cccc(-c2nnc(Cc3nc(-c4ccc(Cl)cc4)no3)o2)c1	1100
CN(C)CCNCc1ccc(-c2cccc(Cl)c2)o1	570
CCc1nccn1Cc1nc(-c2ccc(C)c(C)c2)no1	681
O=C(NCCCCCCNC(=O)ON=C1CCCCC1)ON=C1CCCCC1	926
Cc1ccc(NC(=O)C2CCN(S(=O)(=O)c3ccc4c(c3)sc(=O)n4C)CC2)cc1F	933
